The text below walks through data of US9440938B2, “Sulfonamide derivative having PGD2 receptor antagonistic activity” (SHIONOGI & CO., LTD., priority 2005, dated 2016).

Test [1] has as its target T1, DP receptor (Homo sapiens, UniProt Q13258).
T1 construct: endogenous in cells; host or cells: washed platelets from peripheral blood of a healthy volunteer
T1 sequence (Q13258 1-359): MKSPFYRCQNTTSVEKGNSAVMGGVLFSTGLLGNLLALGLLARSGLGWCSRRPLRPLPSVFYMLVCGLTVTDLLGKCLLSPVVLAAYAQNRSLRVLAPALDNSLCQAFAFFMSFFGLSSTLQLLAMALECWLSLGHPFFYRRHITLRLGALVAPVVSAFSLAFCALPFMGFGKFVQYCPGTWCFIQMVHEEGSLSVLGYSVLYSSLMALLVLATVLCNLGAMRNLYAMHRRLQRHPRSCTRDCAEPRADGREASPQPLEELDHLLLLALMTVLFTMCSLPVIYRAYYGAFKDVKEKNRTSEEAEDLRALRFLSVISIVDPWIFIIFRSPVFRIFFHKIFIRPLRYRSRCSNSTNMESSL
Put plainly: Receptor binding assay, [3H]-PGD2, platelet membrane. As to conditions: [3H]-PGD2, human platelet membrane. Here is the method:
2) Receptor Binding Assay
A prepared WP was homogenated and a membrane fraction was collected with high-speed centrifugation. A compound of the present invention or a reference compound A (No. IC-73 in WO 2003/097598) was added to the plate and [^3H]-PGD2 was also added. A platelet membrane, a protein concentration is 2 mg/mL, was added and mixed in the plate, and placed on ice for 2 hours. The reaction solution was transferred to a low protein-adsorptive filter and washed with a wash solution eight times using a cell harvester. After the final washing, water was removed sufficiently, and scintillator was added. DP inhibitory activity was investigated by measuring [^3H] by using Micro Beta.

The next test has as its system OVA asthma model of rat. As to the kind of experiment: Test using OVA asthma model of rat (airway hyperresponsiveness, infiltration of inflammatory cells, mucus-secretion). Format: in vivo, Brown Norway (BN) Rats. As to conditions: po, 72 h. As to the method: Test Using OVA Asthma Model of Rat
Brown Norway (BN) Rats were sensitized by i.p. administration of 0.1 mg/mL of ovalbumin (OVA) and 1 mg of aluminum hydroxide gel. A solution of 1% OVA was aerosolized by ultrasonic nebulizer (NE-U17) and the rats were subjected to inhalation exposure of the aerosol for 30 minutes in an exposing chamber 12, 19, 26 and 33 days after the sensitization. One hour before the 4th exposure of the antigen, compounds of the present invention were administered in a dose of 10 mg/kg p.o. once a day for three days consecutively. In a control group, 0.5% of methyl cellulose was administered in place of the compound of the present invention.
Under pentobarbital anesthesia (80 mg/kg, i.p.), acetylcholine (3.9, 7.8, 15.6, 31.3, 62.5, 125, 250 and 500 μg/kg) was injected to jugular vein of the rats successively from a lower dose at intervals of 5 minutes three days after the fourth exposure to the antigen, and immediate contractile reaction of airways (an increase of insufflation pressure) was measured by a modified method of Konnzett & Ririssler. Inhibition rate of airway hyperresponsiveness against the control group was calculated based on area under the curve (AUC) obtained from concentration-response curve of acetylcholine.
After the measurement of increased hyperresponsive airway was completed, bronchoalveoli of the rats were washed with 5 mL of saline three times. Total cell number in the washings was counted by a hemacytometer under light microscope, and inhibition rates of infiltration of inflammatory cells against the control group were calculated. Further, mucin in the airway lavage fluid was measured by ELISA method using jacalin, a mucin-binding lectin, and the inhibition rates of mucus-secretion against the control group were calculated.

The target in test [2] is T1, DP receptor. As to the kind of experiment: cAMP assay with washed platelet (DP inhibitory activity in vitro). The format is cell-based. As to conditions: washed human platelets, 100 nM PGD2, cAMP by HTRF. As to the method:
1) Preparation of Platelet and a Method of cAMP Assay
30 mL of peripheral blood was collected from a healthy volunteer using a syringe containing one ninth amount of 3.8% sodium citrate. After being centrifuged at 180 g for 10 minutes at room temperature, a supernatant was collected and used as Platelet Rich Plasma (PRP). The resulting PRP was washed with wash buffer and centrifuged three times (Washed Platelet: WP) and platelets were counted by a microcell counter. WP was added to a plate in amount of 1.5×10^8/assay and the plate was treated with 3-isobutyl-1-methylxanthin (IBMX; 0.5 mM) for 5 minutes. A reaction was initiated by adding 100 nM of PGD2 5 min after an addition of a test compound. The reaction was terminated with an addition of 1N hydrochloric acid after 2 minutes and the cells were destructed using 12% triton X-100. An amount of cAMP in the supernatant was assayed by Homogeneous Trangient Fluorescence (HTRF)

Where [3] appears, read: BN rats, 10 mg/kg p.o. once a day for three days, mucin in airway lavage fluid by ELISA against control group, read-out: inhibition rate (%) mucus-secretion.
The mark [4] stands for this setting: BN rats, 10 mg/kg p.o. once a day for three days, total cell number in bronchoalveolar washings against control group, read-out: inhibition rate (%) infiltration of inflammatory cells.
Setting [5] is: read-out: inhibition rate (%) airway hyperresponsiveness.
[6] abbreviates: read-out: IC50 (50% DP-inhibitory concentration in the cAMP assay).

SMILES strings stand for the structures. Like-named read-outs stand apart in the source and are kept apart here.

Take `CC(C)Oc1ccc(S(=O)(=O)N2CCN(c3ccc([N+](=O)[O-])c(OCC(=O)O)c3)CC2)cc1` [II-13]: at DP receptor [1], the Ki was 810 nM. In addition, the inhibition in vivo at 10 mg/kg in the test on OVA asthma model of rat (setting [3]) was found to be 47%; with OVA asthma model of rat (setting [4]) it was 46%; with OVA asthma model of rat (setting [5]), 99%. In addition, the IC50 on DP receptor [2] (setting [6]) stood at 280 nM.
Regarding `CC(C)Oc1ccc(S(=O)(=O)N2CCN(c3cc(F)c(F)c(OCC(=O)O)c3)CC2)cc1` [II-16], the affinity on DP receptor [1] corresponds to a Ki of 870 nM. For the same compound, the inhibition in vivo at 10 mg/kg with OVA asthma model of rat (setting [3]) was 76%; in the test with OVA asthma model of rat (setting [4]) it was 67%; with OVA asthma model of rat (setting [5]) it was 131%. Also, on DP receptor [2] (setting [6]), the IC50 worked out at 250 nM.
At DP receptor [1], `CC(C)Oc1ccc(S(=O)(=O)N2CCN(c3cc(Br)cc(OCC(=O)O)c3)CC2)cc1` [II-17] gave a Ki of 570 nM. Further, the inhibition in vivo at 10 mg/kg in the test on OVA asthma model of rat (setting [3]) came out at 49%; in the test with OVA asthma model of rat (setting [4]), 53%; with OVA asthma model of rat (setting [5]), 89%. At DP receptor [2] (setting [6]), the IC50 was found to be 230 nM.
The compound `CC(C)Oc1ccc(S(=O)(=O)N2CCN(c3cc(OCC(=O)O)cc(C(F)(F)F)c3)CC2)cc1` [II-19] showed a Ki at DP receptor [1] of 2000 nM. Besides, the inhibition in vivo at 10 mg/kg in the test with OVA asthma model of rat (setting [3]) turned out to be 59%; in the test on OVA asthma model of rat (setting [4]), 51%; in the test with OVA asthma model of rat (setting [5]) it was 54%. Further, the IC50 on DP receptor [2] (setting [6]) is 1100 nM.
The corresponding values for `CC(C)Oc1ccc(S(=O)(=O)N2CCN(c3ccc(NC(=O)c4ccco4)c(OCC(=O)O)c3)CC2)cc1` [II-24] are 1700 nM, 89%, 67%, 77% and 510 nM.
Taken in the same sequence, the figures for `CC(C)Oc1ccc(S(=O)(=O)N2CCN(c3cc(Cl)cc(OCC(=O)O)c3)CC2)cc1` [II-26] were 630 nM, 121%, 37%, 97% and 430 nM.
In turn, `CC(C)Oc1ccc(S(=O)(=O)N2CCN(c3ccc(Cl)c(OCC(=O)O)c3)CC2)cn1` [II-27] yielded a Ki on DP receptor [1] of 1400 nM. In addition, the inhibition in vivo at 10 mg/kg was found to be 118% in the test on OVA asthma model of rat (setting [3]), 49% with OVA asthma model of rat (setting [4]) and 49% with OVA asthma model of rat (setting [5]). In addition, the IC50 at DP receptor [2] (setting [6]) stood at 1000 nM.
On DP receptor [1], `CC[C@@H](C)Oc1ccc(S(=O)(=O)N2CCN(c3ccc(Cl)c(OCC(=O)O)c3)CC2)cc1` [II-29] had a Ki of 740 nM. Besides, the inhibition in vivo at 10 mg/kg with OVA asthma model of rat (setting [3]) is 110%; in the test on OVA asthma model of rat (setting [4]), 60%; in the test with OVA asthma model of rat (setting [5]), 89%. Moreover, the IC50 at DP receptor [2] (setting [6]) is 380 nM.
The corresponding values for `CC(C)Oc1ccc(S(=O)(=O)N2CCN(c3ccc(Br)c(OCC(=O)O)c3)CC2)cc1` [II-33] are 1900 nM, 76%, 57%, 72% and 300 nM.
Taken in the same sequence, the figures for `CC(C)Sc1ccc(S(=O)(=O)N2CCN(c3ccc(Cl)c(OCC(=O)O)c3)CC2)cc1` [II-35] were 3100 nM, 84%, 60%, 88% and 470 nM.
With `Cc1nnc(-c2ccc(N3CCN(S(=O)(=O)c4ccc(OC(C)C)cc4)CC3)cc2OCC(=O)O)s1` [II-75], affinity at DP receptor [1] was put at a Ki of 580 nM. Also, the IC50 at DP receptor [2] (setting [6]) amounted to 580 nM.
In the case of `CC(C)Oc1ccc(S(=O)(=O)N2CCN(c3ccc(C(N)=O)c(OCC(=O)O)c3)CC2)cc1` [II-81], on DP receptor [1], the inhibitory constant (Ki) is 2600 nM. The IC50 on DP receptor [2] (setting [6]) is 1800 nM.
The corresponding values for `CNC(=O)c1ccc(N2CCN(S(=O)(=O)c3ccc(OC(C)C)cc3)CC2)cc1OCC(=O)O` [II-82] are 5000 nM and 1100 nM.
`CCCNC(=O)c1ccc(N2CCN(S(=O)(=O)c3ccc(OC(C)C)cc3)CC2)cc1OCC(=O)O` [II-83] gave a Ki at DP receptor [1] of 20000 nM. Further, the IC50 on DP receptor [2] (setting [6]) was 2000 nM.
In the case of `CC(C)Oc1ccc(S(=O)(=O)N2CCN(c3ccc(-c4cnco4)c(OCC(=O)O)c3)CC2)cn1` [II-85], the Ki on DP receptor [1] worked out at 1700 nM. The compound further returned an IC50 against DP receptor [2] of 510 nM.
For `CC(C)Oc1ccc(S(=O)(=O)N2CCN(c3ccc(-c4nncs4)c(OCC(=O)O)c3)CC2)cc1` [II-88], at DP receptor [1], the Ki worked out at 1500 nM. Further, the IC50 on DP receptor [2] (setting [6]) worked out at 230 nM.
Regarding `CC(C)Oc1ccc(S(=O)(=O)N2CCN(c3ccc(C(=O)NC4CC4)c(OCC(=O)O)c3)CC2)cc1` [II-89], on DP receptor [1], the Ki stood at 20000 nM. Further, the IC50 at DP receptor [2] (setting [6]) was 2100 nM.
Compound `CC(C)Oc1ccc(S(=O)(=O)N2CCN(c3ccc(-c4ncco4)c(OCC(=O)O)c3)CC2)cn1` [II-94] yielded a Ki at DP receptor [1] of 1700 nM. In addition, at DP receptor [2] (setting [6]), the IC50 came out at 2000 nM.
`CC(C)Oc1ccc(S(=O)(=O)N2CCN(c3ccc(-n4cccn4)c(OCC(=O)O)c3)CC2)cc1` [II-95]: on DP receptor [1], the Ki is 4700 nM. The IC50 on DP receptor [2] (setting [6]) was 2400 nM.
The corresponding values for `CC(C)Oc1ccc(S(=O)(=O)N2CCN(c3ccc(C(=O)NCc4cccs4)c(OCC(=O)O)c3)CC2)cc1` [II-99] are 11000 nM and 590 nM.
The corresponding values for `CC(C)Oc1ccc(S(=O)(=O)N2CCN(c3ccc(C(=O)NCc4ccccn4)c(OCC(=O)O)c3)CC2)cc1` [II-100] are 12800 nM and 2400 nM.
The corresponding values for `CC(C)Oc1ccc(S(=O)(=O)N2CCN(c3ccc(C(=O)Nc4nc5ccccc5[nH]4)c(OCC(=O)O)c3)CC2)cc1` [II-101] are 22000 nM and 210 nM.
The compound `CC(C)Oc1ccc(S(=O)(=O)N2CCN(c3ccc(C(=O)NCC4CC4)c(OCC(=O)O)c3)CC2)cc1` [II-105] came in with an inhibitory constant (Ki) at DP receptor [1] of 16000 nM. For the same compound, the IC50 at DP receptor [2] (setting [6]) came to 1500 nM.
On to `CC(C)Oc1ccc(S(=O)(=O)N2CCN(c3ccc(C(=O)NCc4ccco4)c(OCC(=O)O)c3)CC2)cc1` [II-106], for which the Ki on DP receptor [1] was 19000 nM. At DP receptor [2] (setting [6]), the IC50 was determined as 1600 nM.
With `CC(C)Oc1ccc(S(=O)(=O)N2CCN(c3ccc(C(=O)Nc4nccs4)c(OCC(=O)O)c3)CC2)cc1` [II-108], at DP receptor [1], the affinity, expressed as Ki, was 13000 nM. Moreover, at DP receptor [2] (setting [6]), the IC50 was determined as 130 nM.
Taken in the same sequence, the figures for `CC(C)Oc1ccc(S(=O)(=O)N2CCN(c3ccc(C(=O)Nc4nncs4)c(OCC(=O)O)c3)CC2)cc1` [II-110] were 9800 nM and 360 nM.
The corresponding values for `CC(C)Oc1ccc(S(=O)(=O)N2CCN(c3ccc(C(=O)Nc4ccn(C)n4)c(OCC(=O)O)c3)CC2)cc1` [II-111] are 36000 nM and 700 nM.
Taken in the same sequence, the figures for `CC(C)Oc1ccc(S(=O)(=O)N2CCN(c3ccc(C(=O)Nc4cc(C5CC5)n[nH]4)c(OCC(=O)O)c3)CC2)cc1` [II-112] were 9300 nM and 120 nM.
As to `CC(C)Oc1ccc(S(=O)(=O)N2CCN(c3ccc4ncn(CC(=O)O)c4c3)CC2)cc1` [II-134], on DP receptor [1], the inhibition constant (Ki) amounted to 8500 nM. Further, the IC50 on DP receptor [2] (setting [6]) was found to be 2700 nM.
As for `CC(C)Oc1ccc(S(=O)(=O)N2CCN(c3ccc([N+](=O)[O-])c(NCC(=O)O)c3)CC2)cc1` [II-135], the affinity at DP receptor [1] corresponds to a Ki of 490 nM. On DP receptor [2] (setting [6]), the IC50 is 130 nM.
